Columns and labels:
[1] = test system: E. coli K12 and JM109 strains; experiment: Morphological changes by bright field microscopy; format: cell-based; conditions: K12, semi-synthetic media
E coli K12 bacteria = experiment: Agilent analyzer profile of total RNA from control and thiophosphate treated cultures; format: cell-based
Experimental: E coli K12 bacteria were grown in high citrate minimal media with 5.4 g/L of thiophosphate or 2.4 g/L of Na2HPO4 for up to 12 hrs. The use of high citrate media was chosen to help lower the total amount of thiophosphate needed for growth when compared to regular M9 media (1). The media is prepared as follows: thiophosphate, 5.4 g/L; KCL 1.5 g/L; (NH4)2SO4, 2 g/L; sodium citrate 2H2O, 10 g/L. Adjust the pH to 7.5 and sterile filter the solution. Then add the following: MgSO4-7H2O, 0.2 g/L (sterilized separately as a conc. solution); glucose, 2 g/L sterilized separately by filtration). Glucose can also be sterilized by autoclaving separately. CaCl2 (11 mg/L) is also be added as needed.
Total RNA was isolated using Bioline's ISOLATE II RNA mini kit. […] The rRNA ratio (23s/16s) was at least 1.6. Note small RNAs like SS RNA were not retained under the conditions used. For rRNA depleted preparations, Ribominus (Invitrogen) was then used to deplete 23S and 16S rRNA. The ribosomal depleted RNA was then concentrated with the kit's concentration module prior to gel analysis.
To further examine this idea, an Agilent analyzer was used to analyze the profiles of total RNA from control cultures and thiophosphate treated cultures (FIG. 1). It was evident that in E. coli, there was an increase in the non-ribosomal fraction, particularly between the […] and 23S ribosomal RNAs, which was even more evident in ribosomal RNA depleted samples (FIG. 1). Quantitative analysis indicated the fraction of 16S and 23S rRNA in the profile of total RNA was depleted in TP cultures relative to controls. […] This corresponds to a reduction of 8.8%. To estimate the fold increase in mRNA that could account for such a change, one needs to know the % of total RNA that is mRNA.

`OP(O)(O)=S` [thio-phosphate] was tested, and the “time by which filaments were detected” value [1] was ≤ 8 h, the “time by which paired bacteria could be seen” value [1] was ≤ 2 h and the “midpoint of the non-ribosomal RNA peak” value (E coli K12 bacteria) was ~2,000 NT. The “reduction of 16S and 23S rRNA fraction relative to controls” value (E coli K12 bacteria) was 8.8%, the “fold increase in mRNA or non-ribosomal RNA relative to ribosomal RNA” value (E coli K12 bacteria; assuming mRNA is normally 2% of the total) was 5.5 × fold and the “16S and 23S rRNA as fraction of total RNA” value (E coli K12 bacteria; average of two replicates) was 42.5%.

Source: patent publication US11254958B1, “Metabolic engineering of E coli with thio-phosphate” (priority 2018, dated 2022)
